Like-named read-outs stand apart in the source and are kept apart here.
Test system: Malassezia furfur
Settings: inhibition of growth of the Malassezia fungus
Description: Malassezia furfur is grown in a flask containing mDixon medium (see E. Gueho, et. al. Antoninie Leeuwenhock (1996), no. 69, 337-55, which description is incorporated by reference herein). Dilutions of solubilized anti-microbial active or diluted products are then added to test tubes containing molten mDixon agar. M. furfur inoculum is added to each tube of molten agar, the tube vortexed, and the contents poured into separate sterile petri dishes. After the plates are incubated, they are observed for visible M. furfur growth. The lowest tested dilution of anti-microbial active or finished product that comprises that yields no growth is defined as the Minimal Inhibitory Concentration (MIC).

- Minimum Inhibitory Concentration (MIC) (parts active per million parts product and dilution media): 5 ppm
- Minimum Inhibitory Concentration (MIC) (same MIC expressed as g active per 100 g (product + dilution solution)): 0.0005 g/100 g
SMILES: [O-]n1ccccc1=S.[O-]n1ccccc1=S.[Zn+2] [ZPT, zinc salt of 1-hydroxy-2-pyridinethione]
